Source: paper PMC9552247 (Addiction biology, 2022)

Target: human DAT (CHO-DAT) (Homo sapiens, UniProt Q01959)
Settings: labelled compound, 60 nM, pH 7.4, 37°C

Sequence of human DAT (CHO-DAT) (Q01959 whole entry): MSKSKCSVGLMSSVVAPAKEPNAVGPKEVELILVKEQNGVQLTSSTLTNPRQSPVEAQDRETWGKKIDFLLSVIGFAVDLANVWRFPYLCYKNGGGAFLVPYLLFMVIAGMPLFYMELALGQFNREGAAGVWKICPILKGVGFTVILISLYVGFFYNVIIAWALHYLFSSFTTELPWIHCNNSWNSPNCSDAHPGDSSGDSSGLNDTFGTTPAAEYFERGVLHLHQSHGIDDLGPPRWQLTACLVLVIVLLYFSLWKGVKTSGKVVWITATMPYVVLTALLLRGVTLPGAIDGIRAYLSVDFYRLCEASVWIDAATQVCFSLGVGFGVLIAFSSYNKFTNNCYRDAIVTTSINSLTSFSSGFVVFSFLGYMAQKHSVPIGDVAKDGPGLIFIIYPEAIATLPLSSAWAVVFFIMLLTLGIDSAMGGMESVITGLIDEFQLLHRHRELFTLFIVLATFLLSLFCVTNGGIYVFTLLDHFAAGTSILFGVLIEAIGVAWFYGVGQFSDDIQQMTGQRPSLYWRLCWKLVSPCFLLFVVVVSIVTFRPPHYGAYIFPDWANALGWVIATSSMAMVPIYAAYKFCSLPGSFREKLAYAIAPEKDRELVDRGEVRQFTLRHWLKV

For `NCCc1ccc(O)c(O)c1` [dopamine], the “[3H]-dopamine uptake in CHO-DAT cells” value was “cells expressing the DA transporter (CHO-DAT) using tritiated dopamine”.
